Values quoted from earlier work in patent US10308937B2, “Combination long acting compositions and methods for Hepatitis C” (GlaxoSmithKline Intellectual Property (No. 2) Limited, priority 2014, dated 2019).

Conditions: patients treated at currently recommended doses

## NC(=O)c1ncn([C@@H]2O[C@H](CO)[C@@H](O)[C@H]2O)n1 [Ribavirin]
  patients with significant hemolysis: 10-20 % of patients
